Data from patent US8063048B2, “Acetylenyl-pyrazolo-pyrimidine derivatives” (Hoffmann-La Roche Inc., priority 2005, dated 2011).

Row | SMILES | melting point
1 | Cc1cc(CNS(=O)(=O)c2ccc(C#Cc3cnn4c(C(F)(F)F)cc(-c5ccc(C(F)(F)F)cc5)nc34)s2)cc(C)n1 [Example 283, 5-[7-Trifluoromethyl-5-(4-trifluoromethyl-phenyl)-pyrazolo[1,5-a]pyrimidin-3-ylethynyl]-thiophene-2-sulfonic acid (2,6-dimethyl-pyridin-4-ylmethyl)-amide] | 200 °C
2 | FC(F)(F)c1ccc(-c2cc(C(F)(F)F)n3ncc(C#Cc4ccccn4)c3n2)cc1 [Example 6, 3-Pyridin-2-ylethynyl-7-trifluoromethyl-5-(4-trifluoromethyl-phenyl)-pyrazolo[1,5-a]pyrimidine] | 158 to 159 °C
3 | FC(F)(F)c1ccc(-c2cc(C(F)(F)F)n3ncc(C#Cc4cncnc4)c3n2)cc1 [Example 44, 3-Pyrimidin-5-ylethynyl-7-trifluoromethyl-5-(4-trifluoromethyl-phenyl)-pyrazolo[1,5-a]pyrimidine] | 175 °C
4 | O=S(=O)(Nc1ccncc1)c1ccc(C#Cc2cnn3c(C(F)(F)F)cc(-c4ccc(C(F)(F)F)cc4)nc23)s1 [Example 280, 5-[7-Trifluoromethyl-5-(4-trifluoromethyl-phenyl)-pyrazolo[1,5-a]pyrimidin-3-ylethynyl]-thiophene-2-sulfonic acid pyridin-4-ylamide] | 209 °C
5 | Cc1cc(-c2cc(C(F)F)n3ncc(C#Cc4cccc(S(N)(=O)=O)c4)c3n2)ccc1Cl [Example 168, 3-[5-(4-Chloro-3-methyl-phenyl)-7-difluoromethyl-pyrazolo[1,5-a]pyrimidin-3-ylethynyl]-benzenesulfonamide] | 215 °C
6 | CS(=O)(=O)c1cccc(C#Cc2cnn3c(C(F)(F)F)cc(-c4ccc(C(F)(F)F)cc4)nc23)c1 [Example 40, 3-(3-Methanesulfonyl-phenylethynyl)-7-trifluoromethyl-5-(4-trifluoromethyl-phenyl)-pyrazolo[1,5-a]pyrimidine] | 214 °C
7 | O=S(=O)(c1ccc(C#Cc2cnn3c(C(F)(F)F)cc(-c4ccc(C(F)(F)F)cc4)nc23)s1)N1CCNCC1 [Example 260, 3-[5-(piperazine-1-sulfonyl)-thiophen-2-ylethynyl]-7-trifluoromethyl-5-(4-trifluoromethyl-phenyl)-pyrazolo[1,5-a]pyrimidine] | 223 °C
8 | NS(=O)(=O)c1ccc(C#Cc2cnn3c(C(F)(F)F)cc(-c4ccc(C(F)(F)F)cc4)nc23)c(F)c1 [Example 45, 3-Fluoro-4-[7-trifluoromethyl-5-(4-trifluoromethyl-phenyl)-pyrazolo[1,5-a]pyrimidin-3-ylethynyl]-benzenesulfonamide] | 230 to 232 °C
9 | O=S(=O)(c1ccc(C#Cc2cnn3c(C(F)F)cc(-c4ccc(C(F)(F)F)cc4)nc23)s1)N(CCO)CCO [Example 269, 5-[7-Difluoromethyl-5-(4-trifluoromethyl-phenyl)-pyrazolo[1,5-a]pyrimidin-3-ylethynyl]-thiophene-2-sulfonic acid bis-(2-hydroxy-ethyl)-amide] | 122 °C
10 | CC(C)(C)NS(=O)(=O)c1ccc(C#Cc2cnn3c(C(F)(F)F)cc(-c4ccc(C(F)(F)F)cc4)nc23)s1 [Example 109, 5-[7-Trifluoromethyl-5-(4-trifluoromethyl-phenyl)-pyrazolo[1,5-a]pyrimidin-3-ylethynyl]-thiophene-2-sulfonic acid tert-butylamide] | 226 °C
11 | NS(=O)(=O)c1cc(C#Cc2cnn3c(C(F)F)cc(-c4ccc(C(F)(F)F)cc4)nc23)c(F)cc1F [Example 31, 5-[7-Difluoromethyl-5-(4-trifluoromethyl-phenyl)-pyrazolo[1,5-a]pyrimidin-3-ylethynyl]-2,4-difluoro-benzenesulfonamide] | 256 to 258 °C
12 | CN(C)CCNS(=O)(=O)c1ccc(C#Cc2cnn3c(C(F)(F)F)cc(-c4ccc(C(F)(F)F)cc4)nc23)cc1 [Example 126, N-(2-Dimethylamino-ethyl)-4-[7-trifluoromethyl-5-(4-trifluoromethyl-phenyl)-pyrazolo[1,5-a]pyrimidin-3-ylethynyl]-benzenesulfonamide] | 193 to 194 °C
13 | Cc1nc(N)ccc1C#Cc1cnn2c(C(F)F)cc(-c3ccc(C(F)(F)F)cc3)nc12 [Example 143, 5-[7-Difluoromethyl-5-(4-trifluoromethyl-phenyl)-pyrazolo[1,5-a]pyrimidin-3-ylethynyl]-6-methyl-pyridin-2-ylamine] | 243 to 246 °C
14 | NS(=O)(=O)c1ccc(C#Cc2cnn3c(CO)cc(-c4ccc(Cl)cc4)nc23)s1 [Example 156, 5-[5-(4-Chloro-phenyl)-7-hydroxymethyl-pyrazolo[1,5-a]pyrimidin-3-ylethynyl]-thiophene-2-sulfonic acid amide] | 194 to 196 °C
15 | N#Cc1cc(-c2ccc(C(F)(F)F)cc2)cn2c(C#Cc3cnc(N)nc3)cnc12 [Example 227, 3-(2-Amino-pyrimidin-5-ylethynyl)-6-(4-trifluoromethyl-phenyl)-imidazo[1,2-a]pyridine-8-carbonitrile] | 290 °C
16 | O=S(=O)(NC(CO)CO)c1ccc(C#Cc2cnn3c(C(F)(F)F)cc(-c4ccc(C(F)(F)F)cc4)nc23)s1 [Example 163, 5-[7-Trifluoromethyl-5-(4-trifluoromethyl-phenyl)-pyrazolo[1,5-a]pyrimidin-3-ylethynyl]-thiophene-2-sulfonic acid (2-hydroxy-1-hydroxymethyl-ethyl)-amide] | 247 °C
17 | NS(=O)(=O)c1cnc(C#Cc2cnn3c(C(F)(F)F)cc(-c4cccc(C(F)(F)F)c4)nc23)s1 [Example 105, 2-[7-Trifluoromethyl-5-(3-trifluoromethyl-phenyl)-pyrazolo[1,5-a]pyrimidin-3-ylethynyl]-thiazole-5-sulfonic acid amide] | 251 °C

Continued, values first:

Row | melting point | SMILES
18 | 212 °C | N#Cc1ccc(C#Cc2cnn3c(C(F)(F)F)cc(-c4ccc(C(F)(F)F)cc4)nc23)cn1 [Example 288, 5-[7-Trifluoromethyl-5-(4-trifluoromethyl-phenyl)-pyrazolo[1,5-a]pyrimidin-3-ylethynyl]-pyridine-2-carbonitrile]
19 | 219 °C | O=S(=O)(NCCN1CCOCC1)c1ccc(C#Cc2cnn3c(C(F)(F)F)cc(-c4ccc(C(F)(F)F)cc4)nc23)s1 [Example 158, 5-[7-Trifluoromethyl-5-(4-trifluoromethyl-phenyl)-pyrazolo[1,5-a]pyrimidin-3-ylethynyl]-thiophene-2-sulfonic acid (2-morpholin-4-yl-ethyl)-amide]
20 | 285 to 287 °C | NC(=O)c1cncc(C#Cc2cnn3c(C(F)(F)F)cc(-c4ccc(C(F)(F)F)cc4)nc23)c1 [Example 15, 5-[7-Trifluoromethyl-5-(4-trifluoromethyl-phenyl)-pyrazolo[1,5-a]pyrimidin-3-ylethynyl]-nicotinamide]
21 | 160 °C | O=S(=O)(c1ccc(C#Cc2cnn3c(C(F)(F)F)cc(-c4cccc(C(F)(F)F)c4)nc23)s1)N1CCNCC1 [Example 261, 3-[5-(piperazine-1-sulfonyl)-thiophen-2-ylethynyl]-7-trifluoromethyl-5-(3-trifluoromethyl-phenyl)-pyrazolo[1,5-a]pyrimidine]
22 | 226 to 229 °C | CC(C)(CO)NS(=O)(=O)c1cccc(C#Cc2cnn3c(C(F)(F)F)cc(-c4ccc(Cl)cc4)nc23)c1 [Example 95, 3-[5-(4-Chloro-phenyl)-7-trifluoromethyl-pyrazolo[1,5-a]pyrimidin-3-ylethynyl]-N-(2-hydroxy-1,1-dimethyl-ethyl)-benzenesulfonamide]
23 | 237 °C | Cc1cc(-c2cc(C(F)F)n3ncc(C#Cc4ccc(S(N)(=O)=O)cc4)c3n2)ccc1Cl [Example 173, 4-[5-(4-Chloro-3-methyl-phenyl)-7-difluoromethyl-pyrazolo[1,5-a]pyrimidin-3-ylethynyl]-benzenesulfonamide]
24 | 118 to 120 °C | CC(C)(O)c1ccc(C#Cc2cnn3c(CO)cc(-c4ccc(Cl)cc4)nc23)cc1 [Example 299, 2-{4-[5-(4-Chloro-phenyl)-7-hydroxymethyl-pyrazolo[1,5-a]pyrimidin-3-ylethynyl]-phenyl}-propan-2-ol]
25 | 200 °C | Nc1cnc(C#Cc2cnn3c(C(F)(F)F)cc(-c4ccc(C(F)(F)F)cc4)nc23)cn1 [Example 286, 5-[7-Trifluoromethyl-5-(4-trifluoromethyl-phenyl)-pyrazolo[1,5-a]pyrimidin-3-ylethynyl]-pyrazin-2-ylamine]
26 | 172 to 174 °C | CC(CO)(CO)NS(=O)(=O)c1cccc(C#Cc2cnn3c(C(F)F)cc(-c4ccc(C(F)(F)F)cc4)nc23)c1 [Example 33, 3-[7-Difluoromethyl-5-(4-trifluoromethyl-phenyl)-pyrazolo[1,5-a]pyrimidin-3-ylethynyl]-N-(2-hydroxy-1-hydroxymethyl-1-methyl-ethyl)-benzene sulfonamide]
27 | 246 to 248 °C | Cc1cc(-c2ccc(C(F)(F)F)cc2)nc2c(C#Cc3cnc(N)nc3)cnn12 [Example 315, 5-[7-Methyl-5-(4-trifluoromethyl-phenyl)-pyrazolo[1,5-a]pyrimidin-3-ylethynyl]-pyrimidin-2-ylamine]
28 | 244 to 246 °C | Nc1ncc(C#Cc2cnc3ccc(-c4ccc(C(F)(F)F)cc4)cn23)cn1 [Example 238, 5-[6-(4-Trifluoromethyl-phenyl)-imidazo[1,2-a]pyridin-3-ylethynyl]-pyrimidin-2-ylamine]
29 | 153 °C | O=S(=O)(NC(CO)CO)c1ccc(C#Cc2cnn3c(C(F)F)cc(-c4cccc(C(F)(F)F)c4)nc23)s1 [Example 265, 5-[7-Difluoromethyl-5-(3-trifluoromethyl-phenyl)-pyrazolo[1,5-a]pyrimidin-3-ylethynyl]-thiophene-2-sulfonic acid (2-hydroxy-1-hydroxymethyl-ethyl)-amide]
30 | 164 °C | Nc1ccc(C#Cc2cnn3c(C(F)F)cc(-c4cccc(C(F)(F)F)c4)nc23)cn1 [Example 254, 5-[7-Difluoromethyl-5-(3-trifluoromethyl-phenyl)-pyrazolo[1,5-a]pyrimidin-3-ylethynyl]-pyridin-2-ylamine]
